Publication PMC11873635 (Acta Pharmaceutica Sinica. B, 2024)

Key:
human SMS1 = biological target: T1, human SMS1 (Homo sapiens, UniProt Q86VZ5); assay: purified SMS enzyme inhibitory assay in vitro; assay type: biochemical; conditions: for inhibition at 100 µM: read-out: SMS1 Inhibition @ 100 μmol/L (%)
T1 sequence (Q86VZ5 1-413): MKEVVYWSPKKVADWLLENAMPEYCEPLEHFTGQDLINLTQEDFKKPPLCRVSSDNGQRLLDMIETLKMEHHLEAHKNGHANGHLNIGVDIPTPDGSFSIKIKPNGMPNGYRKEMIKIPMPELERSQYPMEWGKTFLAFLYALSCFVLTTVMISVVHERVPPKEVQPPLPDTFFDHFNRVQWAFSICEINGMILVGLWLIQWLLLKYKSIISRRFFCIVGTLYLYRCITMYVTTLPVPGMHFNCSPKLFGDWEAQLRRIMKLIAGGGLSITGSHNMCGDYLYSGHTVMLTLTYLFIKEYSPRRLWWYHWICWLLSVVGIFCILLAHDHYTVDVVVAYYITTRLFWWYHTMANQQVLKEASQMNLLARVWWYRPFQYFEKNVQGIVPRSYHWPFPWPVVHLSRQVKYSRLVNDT

human SMS2 = biological target: T2, human SMS2 (Homo sapiens, UniProt Q8NHU3); assay: purified SMS enzyme inhibitory assay in vitro; assay type: biochemical; conditions: for Selectivity ratio: IC50, SMS1/IC50, SMS2; for LLE: pIC50, SMS2 – ClogP; for inhibition at 1 µM: read-out: SMS2 Inhibition @ 1 μmol/L (%)
T2 sequence (Q8NHU3 1-365): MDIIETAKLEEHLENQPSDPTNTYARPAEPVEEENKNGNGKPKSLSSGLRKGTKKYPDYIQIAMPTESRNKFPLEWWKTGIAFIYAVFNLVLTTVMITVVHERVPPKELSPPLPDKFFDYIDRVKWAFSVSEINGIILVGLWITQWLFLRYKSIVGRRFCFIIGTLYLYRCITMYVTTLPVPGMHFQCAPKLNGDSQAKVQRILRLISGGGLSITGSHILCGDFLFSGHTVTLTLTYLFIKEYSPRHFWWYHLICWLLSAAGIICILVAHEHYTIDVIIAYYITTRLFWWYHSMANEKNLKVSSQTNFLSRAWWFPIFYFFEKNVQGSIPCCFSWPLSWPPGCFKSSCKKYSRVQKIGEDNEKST

O=C(Nc1cccnc1)c1sccc1OCc1ccccc1 [5a]
IC50 (human SMS1): 219000 nM | inhibition at 100 µM (human SMS1): 20% | IC50 (human SMS2): 400 nM | Selectivity ratio (human SMS2): 547 | LLE (human SMS2): 3.33 | inhibition at 1 µM (human SMS2): 66%

O=C(Nc1cccnc1)c1ncccc1OCc1ccccc1 [5b]
inhibition at 100 µM (human SMS1): -18%

Cc1cc(OCc2ccccc2)c(C(=O)Nc2cccnc2)s1 [5c]
inhibition at 100 µM (human SMS1): -14% | inhibition at 1 µM (human SMS2): 34%

Cc1nc(OCc2ccccc2)c(C(=O)Nc2cccnc2)s1 [5d]
inhibition at 100 µM (human SMS1): 10%

O=C(Nc1cccnc1)c1sc([N+](=O)[O-])cc1OCc1ccccc1 [5e]
inhibition at 100 µM (human SMS1): -4%

O=C(Nc1cccnc1)c1scc(Br)c1OCc1ccccc1 [5f]
inhibition at 100 µM (human SMS1): 14% | inhibition at 1 µM (human SMS2): 42%

O=C(Nc1cccnc1F)c1sccc1OCc1ccccc1 [7a]
inhibition at 100 µM (human SMS1): 53% | IC50 (human SMS2): 1790 nM | LLE (human SMS2): 2.31 | inhibition at 1 µM (human SMS2): 41%

O=C(Nc1cnccc1Cl)c1sccc1OCc1ccccc1 [7b]
inhibition at 100 µM (human SMS1): -39% | inhibition at 1 µM (human SMS2): 7%

O=C(Nc1cncc(F)c1)c1sccc1OCc1ccccc1 [7c]
inhibition at 100 µM (human SMS1): 52% | inhibition at 1 µM (human SMS2): 56%

O=C(Nc1ccc(F)nc1)c1sccc1OCc1ccccc1 [7d]
inhibition at 100 µM (human SMS1): 57% | inhibition at 1 µM (human SMS2): 12%

Cc1ncccc1NC(=O)c1sccc1OCc1ccccc1 [7e]
inhibition at 100 µM (human SMS1): -20% | inhibition at 1 µM (human SMS2): 3%

Cc1ccncc1NC(=O)c1sccc1OCc1ccccc1 [7f]
inhibition at 100 µM (human SMS1): -17% | inhibition at 1 µM (human SMS2): -4%

Cc1cncc(NC(=O)c2sccc2OCc2ccccc2)c1 [7g]
inhibition at 100 µM (human SMS1): 28% | inhibition at 1 µM (human SMS2): 12%

Cc1ccc(NC(=O)c2sccc2OCc2ccccc2)cn1 [7h]
inhibition at 100 µM (human SMS1): 22% | inhibition at 1 µM (human SMS2): -3%

O=C(Nc1cccnn1)c1sccc1OCc1ccccc1 [7i]
inhibition at 100 µM (human SMS1): 22% | inhibition at 1 µM (human SMS2): 25%

O=C(Nc1ccnnc1)c1sccc1OCc1ccccc1 [7j]
inhibition at 100 µM (human SMS1): 5% | inhibition at 1 µM (human SMS2): -16%

O=C(Nc1ccccc1)c1sccc1OCc1ccccc1 [7k]
inhibition at 1 µM (human SMS2): 3%

O=C(Nc1cccnc1)c1sccc1OCc1cccc2ccccc12 [9a]
inhibition at 100 µM (human SMS1): 39% | inhibition at 1 µM (human SMS2): 86%

O=C(Nc1cccnc1)c1sccc1OCc1ccc2ccccc2c1 [9b]
inhibition at 100 µM (human SMS1): 42% | inhibition at 1 µM (human SMS2): 36%

O=C(Nc1cccnc1)c1sccc1OCc1c2ccccc2cc2ccccc12 [9c]
inhibition at 100 µM (human SMS1): 5% | inhibition at 1 µM (human SMS2): 79%

O=C(Nc1cccnc1)c1sccc1OCc1cccc2cccnc12 [9d]
inhibition at 100 µM (human SMS1): 21% | inhibition at 1 µM (human SMS2): 45%

CCCCCCCCOc1ccsc1C(=O)Nc1cccnc1 [9e]
inhibition at 100 µM (human SMS1): 67% | inhibition at 1 µM (human SMS2): -11%

O=C(Nc1cccnc1)c1sccc1OCc1ccccc1Cl [14a]
inhibition at 100 µM (human SMS1): 56% | IC50 (human SMS2): 307 nM | LLE (human SMS2): 2.90 | inhibition at 1 µM (human SMS2): 64%

O=C(Nc1cccnc1)c1sccc1OCc1cccc(Cl)c1 [14b]
inhibition at 100 µM (human SMS1): 60% | IC50 (human SMS2): 199 nM | LLE (human SMS2): 3.02 | inhibition at 1 µM (human SMS2): 68%

O=C(Nc1cccnc1)c1sccc1OCc1ccc(Cl)cc1 [14c]
inhibition at 100 µM (human SMS1): 52% | IC50 (human SMS2): 38800 nM | LLE (human SMS2): 0.75 | inhibition at 1 µM (human SMS2): 26%

O=C(Nc1cccnc1)c1sccc1OCc1cc(F)ccc1Cl [14d]
IC50 (human SMS1): 102000 nM | inhibition at 100 µM (human SMS1): 53% | inhibition at 1 µM (human SMS2): 79%

COc1ccccc1COc1ccsc1C(=O)Nc1cccnc1 [14e]
IC50 (human SMS1): 160000 nM | inhibition at 100 µM (human SMS1): 33% | IC50 (human SMS2): 70 nM | Selectivity ratio (human SMS2): 2295 | LLE (human SMS2): 4.04 | inhibition at 1 µM (human SMS2): 82%

CCOc1ccccc1COc1ccsc1C(=O)Nc1cccnc1 [14f]
IC50 (human SMS1): 78000 nM | inhibition at 100 µM (human SMS1): 56% | IC50 (human SMS2): 78 nM | Selectivity ratio (human SMS2): 1004 | LLE (human SMS2): 3.67 | inhibition at 1 µM (human SMS2): 83%

CCCOc1ccccc1COc1ccsc1C(=O)Nc1cccnc1 [14g]
IC50 (human SMS1): 49000 nM | inhibition at 100 µM (human SMS1): 74% | IC50 (human SMS2): 103 nM | Selectivity ratio (human SMS2): 477 | LLE (human SMS2): 3.18 | inhibition at 1 µM (human SMS2): 78%

CCCCOc1ccccc1COc1ccsc1C(=O)Nc1cccnc1 [14h]
IC50 (human SMS1): 20000 nM | inhibition at 100 µM (human SMS1): 81% | IC50 (human SMS2): 65 nM | Selectivity ratio (human SMS2): 313 | LLE (human SMS2): 3.14 | inhibition at 1 µM (human SMS2): 85%

CCCCCOc1ccccc1COc1ccsc1C(=O)Nc1cccnc1 [14i]
IC50 (human SMS1): 10000 nM | inhibition at 100 µM (human SMS1): 88% | IC50 (human SMS2): 74 nM | Selectivity ratio (human SMS2): 142 | LLE (human SMS2): 2.62 | inhibition at 1 µM (human SMS2): 86%

CCCCCCOc1ccccc1COc1ccsc1C(=O)Nc1cccnc1 [14j]
IC50 (human SMS1): 6000 nM | inhibition at 100 µM (human SMS1): 93% | IC50 (human SMS2): 67 nM | Selectivity ratio (human SMS2): 85 | LLE (human SMS2): 2.52 | inhibition at 1 µM (human SMS2): 88%

CCCCCCCOc1ccccc1COc1ccsc1C(=O)Nc1cccnc1 [14k]
IC50 (human SMS1): 13000 nM | inhibition at 100 µM (human SMS1): 90% | IC50 (human SMS2): 29 nM | Selectivity ratio (human SMS2): 459 | LLE (human SMS2): 2.37 | inhibition at 1 µM (human SMS2): 91%

CCCCCCCCCOc1ccccc1COc1ccsc1C(=O)Nc1cccnc1 [14m]
IC50 (human SMS1): 13000 nM | inhibition at 100 µM (human SMS1): 86% | IC50 (human SMS2): 35 nM | Selectivity ratio (human SMS2): 360 | LLE (human SMS2): 1.58 | inhibition at 1 µM (human SMS2): 91%

CCCCCCCCCCOc1ccccc1COc1ccsc1C(=O)Nc1cccnc1 [14n]
IC50 (human SMS1): 13000 nM | inhibition at 100 µM (human SMS1): 87% | IC50 (human SMS2): 31 nM | Selectivity ratio (human SMS2): 409 | LLE (human SMS2): 1.39 | inhibition at 1 µM (human SMS2): 92%

CCCCCCCCCCCOc1ccccc1COc1ccsc1C(=O)Nc1cccnc1 [14o]
IC50 (human SMS1): 13000 nM | inhibition at 100 µM (human SMS1): 90% | IC50 (human SMS2): 29 nM | Selectivity ratio (human SMS2): 445 | LLE (human SMS2): 0.98 | inhibition at 1 µM (human SMS2): 95%

CCCCCCCCCCCCOc1ccccc1COc1ccsc1C(=O)Nc1cccnc1 [14p]
IC50 (human SMS1): 18000 nM | inhibition at 100 µM (human SMS1): 81% | IC50 (human SMS2): 34 nM | Selectivity ratio (human SMS2): 540 | LLE (human SMS2): 0.64 | inhibition at 1 µM (human SMS2): 93%

CCCCCCCCOc1c(Cl)cccc1COc1ccsc1C(=O)Nc1cccnc1 [14q]
IC50 (human SMS1): 10000 nM | inhibition at 100 µM (human SMS1): 92% | IC50 (human SMS2): 15 nM | Selectivity ratio (human SMS2): 649 | LLE (human SMS2): 1.83 | inhibition at 1 µM (human SMS2): 98%

CCCCCCCCOc1ccc(Cl)cc1COc1ccsc1C(=O)Nc1cccnc1 [14r]
IC50 (human SMS1): 8000 nM | inhibition at 100 µM (human SMS1): 85% | IC50 (human SMS2): 111 nM | Selectivity ratio (human SMS2): 70 | LLE (human SMS2): 1.01 | inhibition at 1 µM (human SMS2): 91%

CN(C(=O)c1sccc1OCc1ccccc1)c1cccnc1 [compound 6]
inhibition at 100 µM (human SMS1): 20% | inhibition at 1 µM (human SMS2): 28%

O=C(Nc1cccnc1)c1sccc1OS(=O)(=O)c1ccccc1 [compound 10]
inhibition at 1 µM (human SMS2): -3%
